The values that follow come from ChEMBL document CHEMBL3988442, “University of Dundee, Small-Polar-MMV Screening Library” (2021).

Assay [1] addresses Polyketide synthase Pks13 (Mycobacterium tuberculosis (strain ATCC 25618 / H37Rv), UniProt I6X8D2). As to the kind of experiment: Mycobacterium tuberculosis Polyketide synthase 13 Thioesterase (PKS13). It counts as functional.
The target in assay [2] is ClpP1P2 (Mycobacterium tuberculosis (strain ATCC 25618 / H37Rv), UniProt P9WPC3+P9WPC5). As to the kind of experiment: in vitro assay to detect presence of AMC directly proportional to the activity of ClpP1P2. GHDDI collaboration. It counts as functional.
ClpP1P2, sequence (P9WPC5 whole entry): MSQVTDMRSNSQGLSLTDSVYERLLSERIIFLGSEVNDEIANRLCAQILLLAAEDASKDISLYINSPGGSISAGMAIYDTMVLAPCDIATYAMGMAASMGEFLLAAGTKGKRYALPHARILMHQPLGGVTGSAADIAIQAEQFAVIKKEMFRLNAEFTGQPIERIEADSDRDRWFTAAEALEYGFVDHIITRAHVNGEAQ
ClpP1P2, sequence (P9WPC3 whole entry): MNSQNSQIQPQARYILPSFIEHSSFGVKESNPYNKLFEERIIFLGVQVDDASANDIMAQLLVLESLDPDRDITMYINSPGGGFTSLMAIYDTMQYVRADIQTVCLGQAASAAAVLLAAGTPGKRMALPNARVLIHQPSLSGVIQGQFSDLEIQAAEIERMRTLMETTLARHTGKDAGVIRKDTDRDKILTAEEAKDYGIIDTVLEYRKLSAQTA

Where “and” joins values, the source holds several entries; their conditions need not be identical. Equal values may be shown once.

Polyketide synthase Pks13, sequence (I6X8D2 whole entry): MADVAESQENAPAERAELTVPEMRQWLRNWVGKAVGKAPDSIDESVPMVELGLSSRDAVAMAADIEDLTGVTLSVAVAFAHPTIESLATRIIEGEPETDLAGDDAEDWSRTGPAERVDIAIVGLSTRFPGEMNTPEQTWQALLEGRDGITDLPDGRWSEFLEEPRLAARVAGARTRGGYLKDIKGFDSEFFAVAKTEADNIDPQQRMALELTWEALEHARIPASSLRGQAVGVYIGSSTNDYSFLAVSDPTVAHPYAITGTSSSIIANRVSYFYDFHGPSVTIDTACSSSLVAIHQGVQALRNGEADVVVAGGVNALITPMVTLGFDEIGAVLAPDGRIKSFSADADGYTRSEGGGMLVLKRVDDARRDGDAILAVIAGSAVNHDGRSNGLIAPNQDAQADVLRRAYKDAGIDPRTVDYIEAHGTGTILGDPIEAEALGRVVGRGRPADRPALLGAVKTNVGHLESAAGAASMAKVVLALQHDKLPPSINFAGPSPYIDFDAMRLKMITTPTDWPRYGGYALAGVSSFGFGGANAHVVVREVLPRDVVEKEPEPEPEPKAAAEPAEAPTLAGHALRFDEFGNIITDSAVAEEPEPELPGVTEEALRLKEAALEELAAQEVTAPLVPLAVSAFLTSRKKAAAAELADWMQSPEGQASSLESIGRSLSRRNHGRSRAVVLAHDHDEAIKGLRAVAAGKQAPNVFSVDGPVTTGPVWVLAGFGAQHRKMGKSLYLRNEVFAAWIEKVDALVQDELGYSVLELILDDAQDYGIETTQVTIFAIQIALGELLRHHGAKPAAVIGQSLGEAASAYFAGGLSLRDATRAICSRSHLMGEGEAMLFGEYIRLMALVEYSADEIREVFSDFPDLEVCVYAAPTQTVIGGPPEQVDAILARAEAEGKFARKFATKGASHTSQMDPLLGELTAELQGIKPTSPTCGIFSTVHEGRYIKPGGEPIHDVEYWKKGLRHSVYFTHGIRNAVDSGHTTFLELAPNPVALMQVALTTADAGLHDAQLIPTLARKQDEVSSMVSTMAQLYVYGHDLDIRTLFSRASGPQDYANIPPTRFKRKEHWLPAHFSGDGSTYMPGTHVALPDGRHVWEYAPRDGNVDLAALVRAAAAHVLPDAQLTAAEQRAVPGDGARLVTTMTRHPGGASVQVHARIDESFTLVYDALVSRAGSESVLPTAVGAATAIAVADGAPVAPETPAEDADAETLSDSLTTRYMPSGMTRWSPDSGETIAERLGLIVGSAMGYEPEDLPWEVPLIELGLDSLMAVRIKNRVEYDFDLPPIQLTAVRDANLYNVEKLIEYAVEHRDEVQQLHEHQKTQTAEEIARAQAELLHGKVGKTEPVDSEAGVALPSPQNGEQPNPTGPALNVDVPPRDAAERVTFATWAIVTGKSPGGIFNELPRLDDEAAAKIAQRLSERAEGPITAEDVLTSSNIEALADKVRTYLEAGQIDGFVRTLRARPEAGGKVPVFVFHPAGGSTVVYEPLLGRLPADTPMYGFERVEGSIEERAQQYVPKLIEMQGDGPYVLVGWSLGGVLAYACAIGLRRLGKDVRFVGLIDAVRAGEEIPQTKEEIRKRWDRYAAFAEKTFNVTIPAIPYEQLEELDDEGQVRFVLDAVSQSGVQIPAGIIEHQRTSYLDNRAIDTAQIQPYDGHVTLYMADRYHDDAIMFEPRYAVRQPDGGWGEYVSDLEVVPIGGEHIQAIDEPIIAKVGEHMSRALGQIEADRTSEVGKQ

Consider `Cc1nc(-c2ccc(Cl)s2)sc1C(=O)NCCCC(N)=O`, for which the IC50 (in general, the concentration needed to halve the response being measured) in assay [1] was > 100 µM and 15.1 µM; in assay [2], > 100 µM.
Consider `COc1cnc(N2CCN(C)CC2)nc1-c1ccnn1C`, for which the IC50 in assay [1] is 23.7 µM and 24.9 µM; in assay [2], > 100 µM.
As for `CNC(=O)c1cc2c(nc1NCC(C)C)CCN(S(C)(=O)=O)CC2`, the IC50 in assay [1] is > 100 µM and 16.4 µM; in assay [2], > 100 µM.
`CCc1n[nH]c(C2CN(C(=O)c3nc(C)n4ccccc34)CCO2)n1` (stereo not given): the IC50 was 18.2 µM and 11.7 µM in assay [1]; > 100 µM in assay [2].
Regarding `CC(C)N(CC(N)=O)C(=O)c1cnc(-c2ccc3c(c2)OCO3)s1`, the IC50 in assay [1] was 11.1 µM and 12.4 µM; in assay [2], > 100 µM.
For `CNC(=O)COc1ccc(CNc2cncc(-n3cccn3)n2)cc1`, the IC50 was 11.8 µM and > 100 µM in assay [1]; > 100 µM in assay [2].
For the compound `NS(=O)(=O)Cc1ccc(CNc2cncc(-n3cccn3)n2)cc1`, the IC50 in assay [1] is 19.4 µM and > 100 µM; in assay [2], > 100 µM.
Consider `COC(=O)CNC(=O)c1sc(-c2ccc(Cl)s2)nc1C`, for which the IC50 in assay [1] was 22.3 µM and > 100 µM; in assay [2], > 100 µM.
As to `Cc1ccc(C(=O)N(C)Cc2cc(C)on2)cn1`, the IC50 in assay [1] and in assay [2] was > 100 µM in each case.
For `CCn1cc(-c2cc(-c3ccn(C)c3)nc(N)c2C#N)cc1C#N`, the IC50 in assay [1] is 51.8 µM and 43.6 µM; in assay [2], > 100 µM.
For the compound `CNC(=O)c1cc2c(nc1NCC(C)C)CCN(CC1CC1)CC2`, the IC50 in assay [1] is 21 µM and 28.8 µM; in assay [2], > 100 µM.
Turning to `Cc1cc(C)c2cc(CNC(C)C)c3nn(C)c(=O)n3c2c1`, the IC50 in assay [1] is 17 µM and 18.4 µM; in assay [2] it was > 100 µM.
For `CNC(=O)c1cc2c(nc1NCC1CC1)CCN(S(C)(=O)=O)CC2`, the IC50 in assay [1] is 14.8 µM and 22.2 µM; in assay [2], > 100 µM.
Turning to `Cn1c(Cn2ncc(N3CCCCC3)cc2=O)nc2ccccc21`, the 50% inhibitory concentration (IC50) in assay [1] and in assay [2] was > 100 µM in each case.
Turning to `COCc1ccc(CNc2cncc(-n3cccn3)n2)cc1`, the IC50 in assay [1] is > 57.5 µM and 18.9 µM; in assay [2], > 100 µM.
For the compound `CC(C)(CO)CNC(=O)c1cc(-c2cc[nH]n2)n2ccccc12`, the IC50 is 22.5 µM and 17.5 µM in assay [1]; > 100 µM in assay [2].
Regarding `CS(=O)(=O)c1ccc(-c2cc(C3CC3)c(C#N)c(N)n2)cc1`, the IC50 in assay [1] is 10.4 µM and 11.5 µM; in assay [2], > 100 µM.
With `CCc1nc(C2CCCN2C(=O)c2nc(C)n3ccccc23)no1` (stereo not given), the IC50 in assay [1] was 8.2 µM and 6.66 µM; in assay [2], > 100 µM.
As for `CN(C)S(=O)(=O)c1ccc(-c2nc(C#N)c(NC3CC3)o2)o1`, the IC50 was 12.2 µM and 13.6 µM in assay [1]; > 100 µM in assay [2].
Take `CS(=O)(=O)c1ccc(-c2nc(C(=O)N3CCCC3)n3ccccc23)cc1`: the IC50 in assay [1] was 12.3 µM and 12.9 µM; in assay [2], > 100 µM.
In the case of `CCOCCOCc1cccc(CNc2cncc(-n3cccn3)n2)c1`, the IC50 is 29.9 µM and 19 µM in assay [1]; > 100 µM in assay [2].
Consider `CC(C)Nc1nc2c(cc1C(=O)NCC1CC1)CCN(S(C)(=O)=O)CC2`, for which the IC50 in assay [1] was 20.5 µM and 23.8 µM; in assay [2], > 100 µM.
As to `Cc1nc(-c2ccc(Cl)s2)sc1C(=O)NC(C)(C)C(N)=O`, the IC50 in assay [1] is > 100 µM and 21.1 µM; in assay [2], > 100 µM.
With `COC(=O)CNC(=O)c1nc(-c2ccccc2OC)c2cnccn12`, the half-maximal inhibitory concentration (IC50) in assay [1] was 79.6 µM and > 100 µM; in assay [2], > 100 µM.
In the case of `Cn1cnc(-c2nc(C(=O)NCCN3CCOCC3)c3ccccn23)c1`, the IC50 in assay [1] was 15.6 µM and 34.1 µM; in assay [2] it was > 100 µM.
Regarding `CNC(=O)c1cc2c(nc1NCC(C)C)CCN(c1ccncn1)CC2`, the IC50 in assay [1] was 25.7 µM and 29.5 µM; in assay [2], > 100 µM.
As to `CC(=O)N1CCC(c2cc(C(F)(F)F)nc3nccn23)CC1`, the IC50 was 16.7 µM and 13.5 µM in assay [1]; > 100 µM in assay [2].
As to `O=c1[nH]c(NCCCO)nc2c1C1(CCCC1)Cc1ccccc1-2`, the IC50 in assay [1] is 24.5 µM and 29.7 µM; in assay [2] it was > 100 µM.
As to `CCC1(CC)Cc2ccccc2-c2nc(NCCCO)[nH]c(=O)c21`, the IC50 was 21.9 µM and 23.7 µM in assay [1]; > 100 µM in assay [2].
In the case of `CNC(=O)c1cc2c(nc1NC(C)C)CCNCC2`, the IC50 in assay [1] is 60.3 µM and 25 µM; in assay [2], > 100 µM.
